In ChEMBL document CHEMBL1201862, “PubChem BioAssay data set” (2004):
Activity calls are given as the source filed them.

Legend:
[1] = viability of uninfected HEp-2 cells – cell-based, HTS, cytotoxicity control for RSV inhibitor project, dose response (AID 2410); type: functional; details: human respiratory syncytial virus
[2] = target: T1, Rac GTPase-activating protein 1 (Homo sapiens, UniProt Q9H0H5); assay: blockers of MgcRacGAP-driven Rac1 GTP hydrolysis – biochemical, ADP Hunter fluorescence, primary and confirmatory, confirmation (AID 624330); type: functional
T1 sequence (Q9H0H5 whole entry): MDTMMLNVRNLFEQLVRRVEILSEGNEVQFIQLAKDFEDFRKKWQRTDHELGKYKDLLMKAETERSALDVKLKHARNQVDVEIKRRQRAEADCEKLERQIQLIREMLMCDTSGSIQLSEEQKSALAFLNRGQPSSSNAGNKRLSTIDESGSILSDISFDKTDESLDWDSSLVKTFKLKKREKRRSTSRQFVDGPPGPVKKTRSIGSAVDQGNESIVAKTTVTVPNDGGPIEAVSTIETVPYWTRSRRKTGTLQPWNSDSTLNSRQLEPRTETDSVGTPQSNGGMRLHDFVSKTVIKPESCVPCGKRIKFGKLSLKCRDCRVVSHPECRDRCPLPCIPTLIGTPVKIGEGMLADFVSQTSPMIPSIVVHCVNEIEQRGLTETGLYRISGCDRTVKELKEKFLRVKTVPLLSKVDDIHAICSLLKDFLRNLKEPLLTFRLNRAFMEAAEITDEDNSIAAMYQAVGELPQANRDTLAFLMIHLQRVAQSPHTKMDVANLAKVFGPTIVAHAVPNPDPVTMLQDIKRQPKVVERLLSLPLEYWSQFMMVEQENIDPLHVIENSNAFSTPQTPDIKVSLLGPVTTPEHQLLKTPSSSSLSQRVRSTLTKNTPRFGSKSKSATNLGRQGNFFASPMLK

Cytochrome P450 2C9 = Cytochrome P450 2C9 (Homo sapiens, UniProt P11712)
[3] = target: T2, Corticotropin-releasing factor receptor 2/Corticotropin-releasing factor-binding protein (Homo sapiens, UniProt P24387+Q13324); assay: activators of CRF receptor 2 with binding protein – uHTS hits, confirmation (AID 602473); type: functional; details: read-out: EC50_Mean
T2 sequence (Q13324 whole entry): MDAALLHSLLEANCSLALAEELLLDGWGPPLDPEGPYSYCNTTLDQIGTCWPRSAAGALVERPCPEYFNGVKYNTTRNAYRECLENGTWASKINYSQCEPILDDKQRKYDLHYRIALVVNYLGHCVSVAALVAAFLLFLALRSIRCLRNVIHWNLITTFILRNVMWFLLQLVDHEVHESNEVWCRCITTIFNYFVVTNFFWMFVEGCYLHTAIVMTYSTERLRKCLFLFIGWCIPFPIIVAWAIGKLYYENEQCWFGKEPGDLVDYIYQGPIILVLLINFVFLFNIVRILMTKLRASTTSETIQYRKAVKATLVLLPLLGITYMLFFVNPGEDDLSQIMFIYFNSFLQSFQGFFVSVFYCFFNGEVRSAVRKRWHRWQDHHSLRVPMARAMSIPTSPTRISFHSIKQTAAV
T2 sequence (P24387 whole entry): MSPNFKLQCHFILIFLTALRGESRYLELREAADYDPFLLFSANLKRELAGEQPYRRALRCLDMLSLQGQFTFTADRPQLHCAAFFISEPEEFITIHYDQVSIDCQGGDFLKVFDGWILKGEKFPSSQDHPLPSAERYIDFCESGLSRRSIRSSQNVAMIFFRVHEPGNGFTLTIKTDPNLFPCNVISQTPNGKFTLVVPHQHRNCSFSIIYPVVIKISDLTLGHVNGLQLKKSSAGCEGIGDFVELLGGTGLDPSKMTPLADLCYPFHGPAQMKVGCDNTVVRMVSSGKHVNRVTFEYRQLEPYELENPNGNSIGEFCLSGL

Cytochrome P450 1A2 = target: T3, Cytochrome P450 1A2 (Homo sapiens, UniProt P05177);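 further: PubChem cytochrome P450 panel assay, CYP1A2 panel member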
T3 sequence (P05177 whole entry): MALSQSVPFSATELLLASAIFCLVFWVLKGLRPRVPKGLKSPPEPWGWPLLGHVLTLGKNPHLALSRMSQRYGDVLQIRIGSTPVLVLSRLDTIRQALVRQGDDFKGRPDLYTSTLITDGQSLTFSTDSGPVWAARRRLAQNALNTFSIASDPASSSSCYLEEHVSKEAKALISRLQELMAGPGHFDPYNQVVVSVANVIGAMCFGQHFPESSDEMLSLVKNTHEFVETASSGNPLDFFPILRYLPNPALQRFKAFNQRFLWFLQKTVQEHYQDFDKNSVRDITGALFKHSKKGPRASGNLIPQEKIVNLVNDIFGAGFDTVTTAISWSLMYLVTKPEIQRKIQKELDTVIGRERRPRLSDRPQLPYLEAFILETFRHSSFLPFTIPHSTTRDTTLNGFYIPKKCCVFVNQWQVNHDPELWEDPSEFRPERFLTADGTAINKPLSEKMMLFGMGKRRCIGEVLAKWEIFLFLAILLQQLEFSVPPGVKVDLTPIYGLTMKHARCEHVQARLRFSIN

[4] = target: T4, Replicative DNA helicase DnaB (Mycobacterium tuberculosis, UniProt P9WMR3); assay: DnaB intein splicing inhibitors, dose response, biochemical, cell-free fluorescence (AID 449749); type: functional
T4 sequence (P9WMR3 whole entry): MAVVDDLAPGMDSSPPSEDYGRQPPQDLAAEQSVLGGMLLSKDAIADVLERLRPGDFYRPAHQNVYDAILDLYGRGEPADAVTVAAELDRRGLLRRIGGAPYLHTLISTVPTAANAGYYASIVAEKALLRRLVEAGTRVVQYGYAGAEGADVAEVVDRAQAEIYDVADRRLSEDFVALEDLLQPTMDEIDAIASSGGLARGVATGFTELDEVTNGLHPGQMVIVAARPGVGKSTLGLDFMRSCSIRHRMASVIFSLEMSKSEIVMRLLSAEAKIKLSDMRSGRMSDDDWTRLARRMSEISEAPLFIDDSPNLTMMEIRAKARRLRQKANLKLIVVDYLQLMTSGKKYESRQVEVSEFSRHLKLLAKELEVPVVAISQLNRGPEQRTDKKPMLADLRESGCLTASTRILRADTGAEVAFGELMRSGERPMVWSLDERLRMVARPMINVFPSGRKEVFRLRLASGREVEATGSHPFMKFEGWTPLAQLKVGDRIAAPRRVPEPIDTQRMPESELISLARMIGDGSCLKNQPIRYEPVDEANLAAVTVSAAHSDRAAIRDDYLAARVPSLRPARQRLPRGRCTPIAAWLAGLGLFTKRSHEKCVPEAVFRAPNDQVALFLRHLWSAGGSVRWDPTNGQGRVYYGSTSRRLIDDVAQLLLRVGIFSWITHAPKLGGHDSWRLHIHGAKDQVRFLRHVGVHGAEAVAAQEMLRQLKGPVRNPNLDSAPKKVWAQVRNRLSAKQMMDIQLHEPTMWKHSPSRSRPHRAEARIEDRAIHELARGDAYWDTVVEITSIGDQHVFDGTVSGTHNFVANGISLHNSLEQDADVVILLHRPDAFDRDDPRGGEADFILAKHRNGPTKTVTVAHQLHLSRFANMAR

Protein RecA = target: T5, Protein RecA (Mycobacterium tuberculosis, UniProt P9WHJ3); assay: Fluorescence Cell-Free Homogeneous Dose Retest to Identify Inhibitors of RecA-Intein Splicing Activity. [Related pubchem assays (depositor defined):AID2097, AID2223, AID489010, AID492950]; type: functional
T5 sequence (P9WHJ3 whole entry): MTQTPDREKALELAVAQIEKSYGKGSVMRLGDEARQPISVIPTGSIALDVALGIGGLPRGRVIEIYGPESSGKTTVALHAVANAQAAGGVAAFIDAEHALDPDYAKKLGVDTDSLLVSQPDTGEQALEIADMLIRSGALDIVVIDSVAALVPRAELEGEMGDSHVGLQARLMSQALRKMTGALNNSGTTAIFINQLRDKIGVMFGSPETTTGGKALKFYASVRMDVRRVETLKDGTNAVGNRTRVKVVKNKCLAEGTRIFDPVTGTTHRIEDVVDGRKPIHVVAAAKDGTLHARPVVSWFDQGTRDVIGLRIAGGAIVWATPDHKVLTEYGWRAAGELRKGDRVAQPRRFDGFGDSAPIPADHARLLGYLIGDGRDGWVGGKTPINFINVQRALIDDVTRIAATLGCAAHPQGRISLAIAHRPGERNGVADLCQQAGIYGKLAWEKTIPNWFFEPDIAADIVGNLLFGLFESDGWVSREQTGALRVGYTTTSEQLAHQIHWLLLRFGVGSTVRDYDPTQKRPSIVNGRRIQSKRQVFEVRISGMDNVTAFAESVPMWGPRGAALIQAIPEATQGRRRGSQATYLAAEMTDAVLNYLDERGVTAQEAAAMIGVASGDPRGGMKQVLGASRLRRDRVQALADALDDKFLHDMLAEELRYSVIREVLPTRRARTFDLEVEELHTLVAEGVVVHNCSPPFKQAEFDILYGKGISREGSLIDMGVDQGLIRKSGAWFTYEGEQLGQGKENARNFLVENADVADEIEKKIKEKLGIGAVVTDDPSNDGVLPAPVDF

Cytochrome P450 2C19 = Cytochrome P450 2C19 (Homo sapiens, UniProt P33261); assay: Cytochrome panel assay with activity outcomes. Panel member name: p450-cyp2c19 Compounds with AC50 equal or less than 10 uM are considered active; type: functional; details: read-out: AC50
[5] = target: T6, RNA-binding protein pos-1 (Caenorhabditis elegans, UniProt G5EF15); assay: disruptors of C. elegans POS-1 RNA interaction – biochemical, fluorescence polarization, dose response (AID 1964);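 further: purified POS-1 fused to maltose binding protein made in E. coli; potency of compounds blocking POS-1 binding to fluorescent RNA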
T6 sequence (G5EF15 whole entry): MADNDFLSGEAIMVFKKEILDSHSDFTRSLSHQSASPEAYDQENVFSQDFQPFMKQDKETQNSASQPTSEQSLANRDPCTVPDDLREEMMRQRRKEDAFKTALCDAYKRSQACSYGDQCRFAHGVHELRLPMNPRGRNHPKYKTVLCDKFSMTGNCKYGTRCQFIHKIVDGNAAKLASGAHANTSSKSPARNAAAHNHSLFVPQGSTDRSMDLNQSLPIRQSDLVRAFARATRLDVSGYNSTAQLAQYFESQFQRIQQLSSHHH

Chain of Cytochrome P450 2C9 (P11712 whole entry): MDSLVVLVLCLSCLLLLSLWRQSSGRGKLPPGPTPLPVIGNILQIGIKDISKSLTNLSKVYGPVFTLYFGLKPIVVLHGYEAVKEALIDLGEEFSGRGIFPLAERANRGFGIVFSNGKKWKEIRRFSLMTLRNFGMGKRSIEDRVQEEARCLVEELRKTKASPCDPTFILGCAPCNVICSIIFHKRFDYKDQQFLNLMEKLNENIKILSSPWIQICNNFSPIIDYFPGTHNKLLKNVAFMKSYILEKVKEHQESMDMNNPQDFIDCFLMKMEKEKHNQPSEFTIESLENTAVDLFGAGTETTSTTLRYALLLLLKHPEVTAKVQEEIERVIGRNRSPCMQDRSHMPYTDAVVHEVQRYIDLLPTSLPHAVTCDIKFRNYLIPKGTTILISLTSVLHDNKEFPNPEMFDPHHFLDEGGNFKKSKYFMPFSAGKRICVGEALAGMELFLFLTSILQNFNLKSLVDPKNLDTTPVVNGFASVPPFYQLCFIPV
Chain of Cytochrome P450 2C19 (P33261 whole entry, the tested form may be a part): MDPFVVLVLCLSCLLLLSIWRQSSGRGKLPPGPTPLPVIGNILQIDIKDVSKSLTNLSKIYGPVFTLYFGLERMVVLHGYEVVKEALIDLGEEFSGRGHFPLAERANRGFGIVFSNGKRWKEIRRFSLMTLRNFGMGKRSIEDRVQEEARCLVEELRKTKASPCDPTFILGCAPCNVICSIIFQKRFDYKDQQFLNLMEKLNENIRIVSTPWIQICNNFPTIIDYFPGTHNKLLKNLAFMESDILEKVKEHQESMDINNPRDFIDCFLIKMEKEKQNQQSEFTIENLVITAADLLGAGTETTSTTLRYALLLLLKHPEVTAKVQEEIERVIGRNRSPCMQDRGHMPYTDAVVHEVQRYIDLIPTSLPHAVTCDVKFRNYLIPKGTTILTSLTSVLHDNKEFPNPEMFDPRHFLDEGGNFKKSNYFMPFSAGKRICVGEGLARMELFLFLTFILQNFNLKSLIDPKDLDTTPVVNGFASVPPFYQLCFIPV

Compound	CC50 [1]	AC50 (Cytochrome P450 2C9)	further results
CCN(CC)c1ccc(/C=N/c2sc3c(c2C#N)C2CCN3CC2)c(O)c1	6.56 µM (active)	–	–
Cc1oc(-c2ccccc2)cc1C(=O)Nc1ccc(N(C)C)cc1	–	25.1 µM (inconclusive)	IC50 [2]: 62.3 µM (active)
CCn1nc(C(=O)Nc2ccccc2N2CCCC2)c2ccccc2c1=O	> 50 µM (active)	–	–
CCOc1ccc2nc(NC(=O)COc3ccc(N(C)S(=O)(=O)c4ccc(C)cc4)cc3)sc2c1	1.78 µM (active)	–	–
COC(=O)C1=C(c2ccc(C(C)=O)cc2)C[C@@H]2CC[C@H]1N2C(=O)NCc1ccc(C(F)(F)F)cc1	–	–	EC50 [3]: 4.94 µM (active)
O=C(O)[C@@H](S)[C@H](S)C(=O)O	–	3.98 µM (inconclusive)	–
CCOP(=O)(OCC)c1nc(/C=C/c2ccccc2)oc1NCc1ccccc1	–	4.47 µM (inconclusive)	AC50 (Cytochrome P450 1A2): 15.8 µM (inconclusive)
CC(=O)N1CCc2ccc(S(=O)(=O)N3CCN(C)CC3)cc21	–	–	EC50 [3]: > 53 µM (inactive)
COc1ccc(/C(O)=C/c2nc3ccccc3n(-c3ccccc3)c2=O)cc1	–	–	EC50 [3]: 7.85 µM (active)
O=C(CCCN1C(=O)c2cccc3cccc(c23)C1=O)N1CCN(Cc2ccc3c(c2)OCO3)CC1	43.7 µM (active)	–	–
CCc1sc(C(=O)Nc2ccc3c(c2)OCCO3)cc1Br	10.7 µM (active)	–	–
COc1ncc2nc(-c3cccs3)c(=O)n(C)c2n1	–	12.6 µM (inconclusive)	–
Nc1ccc2[nH]c(CCCCc3nc4ccccc4[nH]3)nc2c1	–	–	AC50 [4]: > 380 µM (inactive); EC50 (Protein RecA): 16.9 µM (active); IC50 [2]: 57.3 µM (active)
COc1cc(CC(=O)OC2CCOC2=O)cc(OC)c1OC (stereo not given)	–	39.8 µM (inconclusive)	AC50 (Cytochrome P450 2C19): 8.91 µM (inconclusive)
COc1ccccc1CNC(=O)CCCn1nc(C)c2c(C)n(-c3ccc(C)cc3)nc2c1=O	32 µM (active)	–	–
COc1cc(OC)cc(C(=O)Nc2ccc(-c3nc4ccccc4o3)c(O)c2)c1	17.6 µM (active)	–	–
CCOc1cc(C=C2C(=O)c3ccccc3C2=O)ccc1OCC(=O)Nc1ccc(C)cc1	–	–	EC50 [3]: > 53 µM (inactive)
Cc1nc2sccn2c(=O)c1S(=O)(=O)Nc1cccc(Cl)c1C	–	–	EC50 [3]: > 53 µM (inactive)
Cc1cc(C)c(NC(=O)C[S+]([O-])CC(=O)NCCCc2ccccc2)c(C)c1 (stereo not given)	–	28.2 µM (inconclusive)	–
Nc1ccc(S(=O)(=O)Nc2cnc3ccccc3n2)cc1 [SULFAQUINOXALINE SODIUM]	–	10 µM (inconclusive)	–
O=S(=O)(c1ccc2c(c1)OCCO2)N1CCN(c2cccc(Cl)c2)CC1	34.9 µM (active)	–	–
Oc1ccc(C[C@H]2CNCCN2CCC23CC4CC(CC(C4)C2)C3)cc1	14.2 µM (active)	–	–
Cc1cccc(N2C(=O)/C(=C/c3ccc(N4CCN(C)CC4)o3)C(=O)NC2=S)c1C	–	–	EC50 [5]: > 300 µM (inconclusive)
O=C(Nc1cccc(S(=O)(=O)N2CCCCC2)c1)c1ccccc1NS(=O)(=O)c1ccc(F)cc1	–	–	EC50 [3]: > 53 µM (inactive)
CCc1cc2c(O)ncnc2s1	–	28.2 µM (inconclusive)	AC50 (Cytochrome P450 1A2): 20 µM (inconclusive)
CCCCc1ccc(-c2csc(/C(C#N)=C/c3ccc(C)o3)n2)cc1	–	3.16 µM (inconclusive)	AC50 (Cytochrome P450 1A2): 2 µM (inconclusive)
C=CCn1c(=O)c2ccccc2n2c(SCC(=O)N3CCCc4ccccc43)nnc12	–	–	EC50 [3]: > 53 µM (inactive)
CCOc1cc(N(CC)CC)ccc1/C=C(/C#N)c1nc2ccccc2[nH]1	21.4 µM (active)	–	–
